Test results as given in patent publication US9877956B2, “Antiviral compounds and methods of use thereof” (Trana Discovery, Inc., priority 2014, dated 2018).
≈ marks a conversion by molar mass, not a printed value. Where “and” joins values, the source holds several entries; their conditions need not be identical. Equal entries are not always repeated.

Key:
Format in all cases: cell-based
PBMC = experiment: Toxicity in PBMC (Cell Titer 96); settings: for % CC: O.D. relative to cell control; for TOXICITY VALUES (Cell Titer 96 - O.D. @ 490/650 nm), SAMPLE: individual samples
Text: These compounds were further screened for activity in HIV-1-infected peripheral blood mononuclear cells (PBMC). The data (experiments were repeated, so duplicates are shown) is summarized in the tables below, and also in FIGS. 4A-B and 5A-B.

HIV-1 92/HT/599 = HIV-1 92/HT/599 replication in human PBMCs, reverse transcriptase in culture supernatants (RLU); settings: for RLU (Relative Light Units), SAMPLE: individual samples, listed as Trana 154
Description: (§1) In these studies, PHA-P stimulated PBMCs from three donors were pooled together and re-suspended in fresh tissue culture medium at 1×10^6 cells/mL and plated in the interior wells of a 96 well round bottom microplate at 50µl/well. A 100µL volume of 9 concentrations of compound serially diluted were transferred to the round-bottom 96 well plate containing the cells in triplicate. Fifty microliters (µL) of HIV-1 at a pre-determined dilution was added. Each plate contained cell control wells and virus control wells in parallel with the experimental wells. After 7 days in culture, efficacy was evaluated by measuring the reverse transcriptase in the culture supernatants and the cells were stained with the tetrazolium dye XTT to evaluate cytotoxicity.

HUMAN PBMCS = experiment: Cytotoxicity in human PBMCs (XTT); settings: for TOXICITY VALUES (XTT - O.D. @ 450/650 nm), SAMPLE: individual samples, listed as Trana 154
Description: as §1

## c1ccc(N/N=C2/CCc3ccccc3N2)cc1 [HIT #154]
PBMC; 31.6 μM
  % CC: 116.3%
  TOXICITY VALUES (Cell Titer 96 - O.D. @ 490/650 nm), SAMPLE: 0.898 O.D. and 1.018 O.D. and 0.970 O.D.
PBMC; 100 μM
  TOXICITY VALUES (Cell Titer 96 - O.D. @ 490/650 nm), MEAN: 0.769 O.D.
  % CC: 92.9%
  TOXICITY VALUES (Cell Titer 96 - O.D. @ 490/650 nm), SAMPLE: 0.757 O.D. and 0.854 O.D. and 0.697 O.D.
PBMC; PBMC, Cell Titer 96
  TC 90%: >100 µM
  TC 95%: >100 µM
HIV-1 92/HT/599; 0.32 μg/ml
  % Virus Control: 84.00%
  Antiviral Test Values Mean RLU: 16201.3 RLU
  RLU (Relative Light Units), SAMPLE: 27495.0 RLU and 14218.0 RLU and 6891.0 RLU
HIV-1 92/HT/599; 1 μg/ml
  % Virus Control: 78.40%
  Antiviral Test Values Mean RLU: 15121.3 RLU
  RLU (Relative Light Units), SAMPLE: 10410.0 RLU and 21914.0 RLU and 13031.0 RLU
HIV-1 92/HT/599; 3.16 μg/ml
  % Virus Control: 41.46%
  Antiviral Test Values Mean RLU: 7996.7 RLU
  RLU (Relative Light Units), SAMPLE: 11407.0 RLU and 10934.0 RLU and 1649.0 RLU
HIV-1 92/HT/599; 9.99 μg/ml
  % Virus Control: 48.92%
  Antiviral Test Values Mean RLU: 9436.3 RLU
  RLU (Relative Light Units), SAMPLE: 13230.0 RLU and 13148.0 RLU and 1933.0 RLU
HIV-1 92/HT/599; 31.6 μg/ml
  % Virus Control: 35.47%
  Antiviral Test Values Mean RLU: 6841.0 RLU
  RLU (Relative Light Units), SAMPLE: 5800.0 RLU and 7652.0 RLU and 7462.0 RLU
HIV-1 92/HT/599; 100 μg/ml
  % Virus Control: 6.75%
  Antiviral Test Values Mean RLU: 1301.3 RLU
  RLU (Relative Light Units), SAMPLE: 1021.0 RLU and 744.0 RLU and 2139.0 RLU
HIV-1 92/HT/599; HIV-1 92/HT/599, human PBMCs
  EC 25%: 1.11 µg/mL (≈ 4.68 µM)
  EC 95%: >100 µg/mL
HIV-1 92/HT/599; Human immunodeficiency virus 1, PBMC, read-out: EC50 (EC 50%), HIV-1 92/HT/599, human PBMCs
  EC50: 2.42 µg/mL (≈ 10.2 µM)
HIV-1 92/HT/599; TC/EC at 25%
  Therapeutic Index (TI) 25%: 20.09
HIV-1 92/HT/599; TC/EC at 50%
  Therapeutic Index (TI) 50%: 33.76
HIV-1 92/HT/599; TC/EC at 95%
  Therapeutic Index (TI) 95%: 1
HUMAN PBMCS; 0.32 μg/ml
  % Cell Viability: 92.64%
  Cytotoxicity Test Values Mean OD @ 450/650 nm: 1.038 OD
  TOXICITY VALUES (XTT - O.D. @ 450/650 nm), SAMPLE: 0.9729 O.D. and 1.0510 O.D. and 1.0896 O.D.
HUMAN PBMCS; 1 μg/ml
  % Cell Viability: 87.74%
  Cytotoxicity Test Values Mean OD @ 450/650 nm: 0.983 OD
  TOXICITY VALUES (XTT - O.D. @ 450/650 nm), SAMPLE: 0.9683 O.D. and 1.0187 O.D. and 0.9670 O.D.
HUMAN PBMCS; 3.16 μg/ml
  % Cell Viability: 88.82%
  Cytotoxicity Test Values Mean OD @ 450/650 nm: 0.995 OD
  TOXICITY VALUES (XTT - O.D. @ 450/650 nm), SAMPLE: 0.9103 O.D. and 1.0889 O.D. and 0.9881 O.D.
HUMAN PBMCS; 9.99 μg/ml
  % Cell Viability: 99.35%
  Cytotoxicity Test Values Mean OD @ 450/650 nm: 1.113 OD
  TOXICITY VALUES (XTT - O.D. @ 450/650 nm), SAMPLE: 1.1959 O.D. and 0.9242 O.D. and 1.2189 O.D.
HUMAN PBMCS; 31.6 μg/ml
  % Cell Viability: 64.38%
  Cytotoxicity Test Values Mean OD @ 450/650 nm: 0.721 OD
  TOXICITY VALUES (XTT - O.D. @ 450/650 nm), SAMPLE: 0.6103 O.D. and 0.6005 O.D. and 0.7620 O.D.
HUMAN PBMCS; 100 μg/ml
  % Cell Viability: 46.94%
  Cytotoxicity Test Values Mean OD @ 450/650 nm: 0.526 OD
  TOXICITY VALUES (XTT - O.D. @ 450/650 nm), SAMPLE: 0.4574 O.D. and 0.5742 O.D. and 0.5461 O.D.
HUMAN PBMCS; human PBMCs, XTT
  TC 25%: 22.3 µg/mL (≈ 94 µM)
  TC50 (TC 50%): 81.7 µg/mL (≈ 344 µM)
  TC 95%: >100 µg/mL
